Measured values as given in US20230095520A1, “PHARMACEUTICAL COMPOSITION FOR PREVENTING OR TREATING CANCER COMPRISING AZOLE DERIVATIVES OR PHARMACEUTICALLY ACCEPTABLE SALT THEREOF” (Yungjin Pharm. Co., Ltd., priority 2020, published 2023).
pIC50: −log10 of the molar value.

Key:
[1] = molecular target: T1, Recombinant purified human CDK7 (Homo sapiens, UniProt P50613); assay: CDK7 activity inhibition, ADP-Glo kinase assay; type: biochemical; settings: ATP 90 μM, MBP substrate, 2 hours 30° C.
T1 construct: purchased ThermoFisher PV3868
Experimental: Recombinant purified human CDK7 (ThermoFisher, PV3868) and ADP Glo Kinase Assay Kit (Promega, V9102) were used. CDK7 was diluted with 1× kinase reaction buffer (40 mM Tris-Cl, pH 7.5, 20 mM MgCl2, 0.1 mg/ml BSA and 50 μM DTT) and added to a 96 well plate (CDK7 final concentration per reaction: 50 ng). It was finally treated with the compound of the present invention to a 1% DMSO aqueous solution, and a substrate cocktail containing ATP (final concentration of 90 μM) and 0.2 μg/μl MBP (myelin basic protein) in a total of 25 μl reaction mass was added to a 96 well plate, thereby initiating the enzymatic reaction. After 2 hours of incubation (30° C.), an equal volume (25 μl per reaction) of ADP Glo was added and incubated at room temperature for 60 minutes (30° C.). Thereafter, kinase detection reagent (50 μl per reaction) was added and incubated at room temperature for 30 minutes (30° C.). The kinase activity was measured by the chemiluminescence method according to the ADP Glo Kinase Assay Kit instruction manual, and the CDK7 inhibitory activity of the compounds of the present invention was calculated.

MV-4-11 cells = assay: MV-4-11 cell proliferation inhibition (CCK-8); type: cell-based; settings: Homo sapiens, 72 hours; for inhibition at 0.1 µM: MV4-11, MV-4-11, compound concentration 100 nM, read-out: Inhibition rate (%); for pIC50: MV4-11, MV-4-11 proliferation
Experimental: MV-4-11 cells are one of the acute myeloid leukemia cells with a Fms-like tyrosine kinase (FLT3) gene mutation, and these cells are used to test inhibition of proliferation and survival of leukemia cells.
MV-4-11 cells cultured in a 96-well cell culture plate were treated with the compound of the present invention and cultured for 72 hours. Thereafter, the antiproliferative effect of the compound was assayed by the CCK-8 method using a tetrazolium salt.

T1 sequence (P50613 whole entry): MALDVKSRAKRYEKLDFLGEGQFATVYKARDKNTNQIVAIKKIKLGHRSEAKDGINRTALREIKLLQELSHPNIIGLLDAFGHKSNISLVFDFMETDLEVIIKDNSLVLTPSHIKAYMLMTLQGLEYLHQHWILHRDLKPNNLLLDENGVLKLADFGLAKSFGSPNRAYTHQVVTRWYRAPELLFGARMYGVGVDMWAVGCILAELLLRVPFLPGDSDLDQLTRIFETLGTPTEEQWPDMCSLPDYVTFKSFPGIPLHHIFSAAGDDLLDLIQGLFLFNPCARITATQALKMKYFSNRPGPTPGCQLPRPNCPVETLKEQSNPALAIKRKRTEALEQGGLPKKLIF
T1 sequence (P51946 whole entry partner): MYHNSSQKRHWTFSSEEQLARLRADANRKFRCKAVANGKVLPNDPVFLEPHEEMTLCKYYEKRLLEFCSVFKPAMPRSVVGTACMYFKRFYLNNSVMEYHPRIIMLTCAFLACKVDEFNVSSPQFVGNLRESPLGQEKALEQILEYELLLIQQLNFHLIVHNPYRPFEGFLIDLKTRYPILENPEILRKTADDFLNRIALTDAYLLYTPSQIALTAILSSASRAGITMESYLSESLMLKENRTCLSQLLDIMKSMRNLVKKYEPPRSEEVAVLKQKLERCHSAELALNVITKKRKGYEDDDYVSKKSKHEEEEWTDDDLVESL
T1 sequence (P51948 whole entry partner): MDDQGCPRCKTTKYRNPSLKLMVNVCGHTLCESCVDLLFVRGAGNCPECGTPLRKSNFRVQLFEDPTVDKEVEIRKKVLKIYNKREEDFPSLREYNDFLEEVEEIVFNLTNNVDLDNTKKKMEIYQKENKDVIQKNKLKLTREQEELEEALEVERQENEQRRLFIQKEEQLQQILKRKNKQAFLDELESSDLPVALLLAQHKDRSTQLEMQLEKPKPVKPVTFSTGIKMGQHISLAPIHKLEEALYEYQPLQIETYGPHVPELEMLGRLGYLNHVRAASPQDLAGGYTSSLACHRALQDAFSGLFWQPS

IC50 [1] | pIC50 (MV-4-11 cells) | Structure (SMILES) | inhibition at 0.1 µM (MV-4-11 cells)
28 nM | 7.34 | C=CC(=O)Nc1ccc(-c2cccc([C@H](C)C(=O)Nc3ncc(C4CC4)s3)c2)cn1 [Compound 14] | 100%
11 nM |  | C[C@H](C(=O)Nc1ncc(C2CC2)s1)c1cccc(-c2ccc(NC(=O)/C=C/CN(C)C)nc2)c1 [Compound 15] | 100%
17.8 nM |  | C=CC(=O)Nc1cnc(-c2cccc([C@H](C)C(=O)Nc3ncc(C(F)(F)F)s3)c2)cn1 [Compound 37, (S)-N-(5-(3-(1-oxo-1-((5-(trifluoromethyl)thiazol-2-yl)amino)propan-2-yl)phenyl)pyrazin-2-yl)acrylamide] | 100%
19.2 nM | 8.35 | C=CC(=O)Nc1cnc(-c2cncc([C@H](C)C(=O)Nc3ncc(C(F)(F)F)s3)c2)cn1 [Compound 52, (S)-N-(5-(5-(1-oxo-1-((5-(trifluoromethyl)thiazol-2-yl)amino)propan-2-yl)pyridin-3-yl)pyrazin-2-yl)acrylamide] | 
17.8 nM | 8.28 | CC(C(=O)Nc1ncc(C(F)(F)F)s1)c1cncc(-c2cnc(NC(=O)/C=C/CN(C)C)cn2)c1 (stereo not shown) [Compound 63, (E)-4-(dimethylamino)-N-(5-(5-(1-oxo-1-((5-(trifluoromethyl)thiazol-2-yl)amino)propan-2-yl)pyridin-3-yl)pyrazin-2-yl)but-2-enamide] | 
43.4 nM | 7.96 | CC(C(=O)Nc1ncc(Cl)s1)c1cncc(-c2cnc(NC(=O)/C=C/CN(C)C)cn2)c1 (stereo not shown) [Compound 73, (E)-N-(5-(5-(1-((5-chlorothiazol-2-yl)amino)-1-oxopropan-2-yl)pyridin-3-yl)pyrazin-2-yl)-4-(dimethylamino)but-2-enamide] | 
77 nM | 7.52 | CC(C(=O)Nc1ncc(C(F)(F)F)s1)c1cncc(-c2cnc(NC(=O)/C=C/CN3CCOCC3)cn2)c1 (stereo not shown) [Compound 74, (E)-4-morpholino-N-(5-(5-(1-oxo-1-((5-(trifluoromethyl)thiazol-2-yl)amino)propan-2-yl)pyridin-3-yl)pyrazin-2-yl)but-2-enamide] | 
17 nM |  | Cc1cc(-c2cccc([C@H](C)C(=O)Nc3ncc(C(F)(F)F)s3)c2)cnc1NC(=O)/C=C/CN(C)C [Compound 112, (S,E)-4-(dimethylamino)-N-(3-methyl-5-(3-(1-oxo-1-((5-(trifluoromethyl)thiazol-2-yl)amino)propan-2-yl)phenyl)pyridin-2-yl)but-2-enamide] | 
8.5 nM |  | C[C@H](C(=O)Nc1ncc(C(F)(F)F)s1)c1cccc(-c2cnc(NC(=O)/C=C/CN(C)C)c(Cl)c2)c1 [Compound 113, (S,E)-N-(3-chloro-5-(3-(1-oxo-1-((5-(trifluoromethyl)thiazol-2-yl)amino)propan-2-yl)phenyl)pyridin-2-yl)-4-(dimethylamino)but-2-enamide] | 
12 nM |  | CCN(CC)C/C=C/C(=O)Nc1cnc(-c2cccc([C@H](C)C(=O)Nc3ncc(C(F)(F)F)s3)c2)cn1 [Compound 114, (S,E)-4-(diethylamino)-N-(5-(3-(1-oxo-1-((5-(trifluoromethyl)thiazol-2-yl)amino)propan-2-yl)phenyl)pyrazin-2-yl)but-2-enamide] | 
13.5 nM |  | C[C@H](C(=O)Nc1ncc(C(F)(F)F)s1)c1cccc(-c2ccc(NC(=O)/C=C/CN(C)C)nc2)c1 [Compound 116, (S,E)-4-(dimethylamino)-N-(5-(3-(1-oxo-1-((5-(trifluoromethyl)thiazol-2-yl)amino)propan-2-yl)phenyl)pyridin-2-yl)but-2-enamide] | 
15.4 nM |  | C[C@H](C(=O)Nc1ncc(C(F)(F)F)s1)c1cccc(-c2cnc(NC(=O)/C=C/CN3CC[C@H](F)C3)cn2)c1 [Compound 117, (E)-4-((S)-3-fluoropyrrolidin-1-yl)-N-(5-(3-((S)-1-oxo-1-((5-(trifluoromethyl)thiazol-2-yl)amino)propan-2-yl)phenyl)pyrazin-2-yl)but-2-enamide] | 
20 nM |  | COC[C@@H]1CCCN1C/C=C/C(=O)Nc1cnc(-c2cccc([C@H](C)C(=O)Nc3ncc(C(F)(F)F)s3)c2)cn1 [Compound 118, (E)-4-((S)-2-(methoxymethyl)pyrrolidin-1-yl)-N-(5-(3-((S)-1-oxo-1-((5-(trifluoromethyl)thiazol-2-yl)amino)propan-2-yl)phenyl)pyrazin-2-yl)but-2-enamide] | 
16 nM |  | C[C@H](C(=O)Nc1ncc(C(F)(F)F)s1)c1cccc(-c2cnc(NC(=O)/C=C/CN3CCCCC3)cn2)c1 [Compound 120, (S,E)-N-(5-(3-(1-oxo-1-((5-(trifluoromethyl)thiazol-2-yl)amino)propan-2-yl)phenyl)pyrazin-2-yl)-4-(piperidin-1-yl)but-2-enamide] | 
6 nM |  | CCc1cnc(NC(=O)[C@@H](C)c2cccc(-c3cnc4c(c3)CCN4C(=O)/C=C/CN(C)C)c2)s1 [Compound 122, (S,E)-2-(3-(1-(4-(dimethylamino)but-2-enoyl)-2,3-dihydro-1H-pyrrolo[2,3-b]pyridin-5-yl)phenyl)-N-(5-ethylthiazol-2-yl)propanamide] | 
5.3 nM |  | CCc1cnc(NC(=O)[C@@H](C)c2cccc(-c3cnc(NC(=O)/C=C/CN4CC5CC4CO5)c(C#N)c3)c2)s1 (stereo partly drawn) [Compound 123, (E)-4-(2-oxa-5-azabicyclo[2.2.1]heptan-5-yl)-N-(3-cyano-5-(3-((S)-1-((5-ethylthiazol-2-yl)amino)-1-oxopropan-2-yl)phenyl)pyridin-2-yl)but-2-enamide] | 
4.5 nM |  | C=CC(=O)Nc1ncc(-c2cccc([C@H](C)C(=O)Nc3ncc(C(F)(F)F)s3)c2)cc1C#N [Compound 124, (S)-N-(3-cyano-5-(3-(1-oxo-1-((5-(trifluoromethyl)thiazol-2-yl)amino)propan-2-yl)phenyl)pyridin-2-yl)acrylamide] | 
13.2 nM |  | CCc1cnc(NC(=O)[C@@H](C)c2cccc(-c3cnc(NC(=O)/C=C/CN(C)C)c(C)c3)c2)s1 [Compound 125, (S,E)-4-(dimethylamino)-N-(5-(3-(1-((5-ethylthiazol-2-yl)amino)-1-oxopropan-2-yl)phenyl)-3-methylpyridin-2-yl)but-2-enamide] | 
50 nM |  | CCc1cnc(NC(=O)C2(c3cccc(-c4cnc(NC(=O)/C=C/CN(C)C)c(C#N)c4)c3)CC2)s1 [Compound 128, (E)-1-(3-(5-cyano-6-(4-(dimethylamino)but-2-enamido)pyridin-3-yl)phenyl)-N-(5-ethylthiazol-2-yl)cyclopropane-1-carboxamide] | 
59 nM |  | CCc1cnc(NC(=O)C(CC)c2cccc(-c3ccc(NC(=O)/C=C/CN(C)C)cn3)c2)s1 (stereo not shown) [Compound 131, (E)-4-(dimethylamino)-N-(6-(3-(1-((5-ethylthiazol-2-yl)amino)-1-oxobutan-2-yl)phenyl)pyridin-3-yl)but-2-enamide] | 
6.6 nM |  | CCc1cnc(NC(=O)[C@@H](C)c2cccc(-c3cnc(N(C)C(=O)/C=C/CN(C)C)c(C#N)c3)c2)s1 [Compound 132, (S,E)-N-(3-cyano-5-(3-(1-((5-ethylthiazol-2-yl)amino)-1-oxopropan-2-yl)phenyl)pyridin-2-yl)-4-(dimethylamino)-N-methylbut-2-enamide] | 
47 nM |  | CCc1cnc(NC(=O)C2(c3cccc(-c4cnc5c(c4)CCN5C(=O)/C=C/CN(C)C)c3)CC2)s1 [Compound 133, (E)-1-(3-(1-(4-(dimethylamino)but-2-enoyl)-2,3-dihydro-1H-pyrrolo[2,3-b]pyridin-5-yl)phenyl)-N-(5-ethylthiazol-2-yl)cyclopropane-1-carboxamide] | 
13 nM |  | CCc1cnc(NC(=O)[C@@H](C)c2cccc(-c3cnc(NC(=O)/C=C/CN4CCOCC4)c(C#N)c3)c2)s1 [Compound 135, (S,E)-N-(3-cyano-5-(3-(1-((5-ethylthiazol-2-yl)amino)-1-oxopropan-2-yl)phenyl)pyridin-2-yl)-4-morpholinobut-2-enamide] | 
33 nM |  | CCc1cnc(NC(=O)[C@@H](C)c2cccc(-c3cnc(NC(=O)/C=C/CN4CCN(C)CC4)c(C#N)c3)c2)s1 [Compound 136, (S,E)-N-(3-cyano-5-(3-(1-((5-ethylthiazol-2-yl)amino)-1-oxopropan-2-yl)phenyl)pyridin-2-yl)-4-(4-methylpiperazin-1-yl)but-2-enamide] | 
13 nM |  | CCc1cnc(NC(=O)C(C)c2cncc(-c3cnc(NC(=O)/C=C/CN(C)C)c(C#N)c3)c2)s1 (stereo not shown) [Compound 137, (E)-N-(5-cyano-5′-(1-((5-ethylthiazol-2-yl)amino)-1-oxopropan-2-yl)-[3,3′-bipyridin]-6-yl)-4-(dimethylamino)but-2-enamide] | 
8 nM |  | CCc1cnc(NC(=O)C(CC)c2cccc(-c3cnc(NC(=O)/C=C/CN(C)C)c(C#N)c3)c2)s1 (stereo not shown) [Compound 138, (E)-N-(3-cyano-5-(3-(1-((5-ethylthiazol-2-yl)amino)-1-oxobutan-2-yl)phenyl)pyridin-2-yl)-4-(dimethylamino)but-2-enamide] | 
